Key:
[1] = Water dispersibility comparison (FIG. 1); assay type: physicochemical; settings: dispersed in water, vials of FIG. 1
Excerpt: With reference to FIG. 1, water dispersibility was compared between the known 95% Tan IIA and nano Tan IIA obtained by the process according to the present invention, in which Vial A represented the known 95% Tan IIA dispersed in water, Vial B represented nano Tan IIA dispersed in water obtained by the process according to the present invention.

[2] = oral administration; cited from earlier work

In the case of Cc1coc2c1C(=O)C(=O)c1c-2ccc2c1CCCC2(C)C [Tan IIA, Tanshinone IIA], the water dispersibility [1] is listed as “water insoluble” and the bioavailability [2] is listed as “low bioavailability”.

From patent US11583498B2 (Wakamono Corporation, priority 2020, dated 2023)
